Results on 1 molecule are retold here after article PMC7259638, “Characterization of the intestinal absorption of morroniside from Cornus officinalis Sieb. et Zucc via a Caco-2 cell monolayer model” (PLoS ONE, 2020).

One series concerns MRP. Kind of series: Effects of influx/efflux transporter inhibitors and CO on morroniside transport in Caco-2 cell monolayers. The note with it: human, Caco-2, pH 7.4, with MK571 100 μM, 25 μM morroniside. Type of series: in vitro ADME, human. How it is done: (§1) An initial stock solution of morroniside in methanol was prepared. The stock solution was then diluted with HBSS (pH = 7.4) and the final concentration of methanol in HBSS remained at 0.5%. […] Caco-2 cells were seeded at a density of 5 × 10^4 cells/cm^2 in a 12-well plate. The transepithelial electrical resistance (TEER) value was measured with a Millipore ERS voltameter (Burlington, MA, USA) in order to evaluate and determine monolayer integrity. The monolayers were ready for experiments 19 to 22 days after seeding.
(§2) During incubation, the culture medium was refreshed every other day. The culture medium was discarded, and 500 μL of HBSS was added to each well and incubated for 20 min at 37 °C. Afterward, each well was rinsed two times with HBSS at 37 °C. Three concentrations of morroniside (5, 25 and 100 μM) were added to either the apical (AP, 0.5 mL) or basolateral side (BL, 1.5 mL), wheras the receiving chamber contained the corresponding volume of blank HBSS medium (pH = 7.4). Incubation was performed at 37 °C for 180 min, with shaking at 50 rpm. To assess drug transport from the AP to BL side, after incubation for 5, 15, 30, 45, 60, 90, 120 or 180 min, 50 μL of the solution from the BL or AP side was collected, and replaced with an equal volume of HBSS. To study the effect of pH on morroniside (5, 25 and 100 μM) transport, the experiments were performed in HBSS, which was adjusted to pH 6.0 or pH 7.4 on the AP side depending on the experiment, and to pH 7.4 on the BL side at 37 °C.
(§3) Efflux and influx transporters were investigated for their effects on the transport flux of morroniside. Several ATP-binding cassette transporter inhibitors, including one p-glycoprotein (P-gp) inhibitor (100μM verapamil); one multidrug resistance- related protein (MRP) inhibitor (100 μM, MK571), one multidrug resistance- related protein 3 (MRP3, the main BL MRP) inhibitor ([…]) and one multidrug resistance- related protein 2 (MRP2, the main AP MRP) inhibitor (200μM indomethacin); and one breast cancer resistance protein (BCRP) inhibitor (25μM apigenin) were used to determine the transporters involved in the efflux transport of morroniside. The inhibition of the influx transport of morroniside transport across the Caco-2 cell monolayer was investigated by the addition of 50 μM sodium vanadate and cimetidine to evaluate the selectivity of Na/K-ATPase. The pH and temperature conditions of this assay were 7.4 and 37 °C, respectively.
(§4) UPLC-MS/MS data acquisition was performed using Analyst 1.5.2 and MultiQuant 2.1.1 software (Applied Biosystems). All data are shown as the mean ± standard deviation, n = 3. The data were analyzed using SPSS 20.0. In the Caco-2 cell model, the rate of transport was obtained from the amount transported versus the time curve using linear regression. The permeability coefficient of each compound was calculated using the following equation: Papp = (dQ/dt)/(A·C0).
(§5) where, dQ/dt is the rate of drug transport, C0 is the initial concentration of the compound in the donor chamber and A represents the surface area of the cell monolayer. The efflux ratio P was determined by calculating the ratio of Papp in the secretory (BA) direction divided by that in the absorptive (AB) direction, according to the following equation: P=PappBA/PappAB
For orientation: Passage across Caco-2 layers is used to estimate intestinal permeability.

In a further series the test system is MRP2. Described as above. Type of series: in vitro ADME, human. The conditions noted are these: human, 25 μM morroniside. How it is done:
as §1, §2, §3, §4, §5

Experiment in series [1]: as above
The conditions noted are these: human; for efflux ratio at 180 min, 25 μM: read-out: Efflux ratio P. Type of series: in vitro ADME, human. The method, then:
as §1, §2, §3, §4, §5

The next series concerns Caco-2 cells. Briefly: MTT cytotoxicity assay. The note with it: for Survival Rates (%, mean): Caco-2 cells, five replicates. Type of series: cell-based, human. The method, then: The conditions for Caco-2 cell culture have been described previously. Briefly, Caco-2 cells were cultured in a humidified atmosphere of 5% CO2 and 95% air at 37 °C. The culture medium (DMEM) was supplemented with 10% (v/v) fetal bovine serum, 1% nonessential amino acids, 1% penicillin, and streptomycin. The medium was changed every 2–3 days. When the cell monolayer reached 80–90% confluence, the cells were detached with a solution of trypsin (0.5 mg/mL) and EDTA (0.2 mg/mL) and reseeded at a density of 5×10^4 cells/cm^2.
For the cytotoxicity assay, the cells were incubated in 96-well plates for 24 h. Morroniside dissolved in methanol was diluted with DMEM to terminal concentrations that ranged from 0.1 μM to 200 μM, or CO at 0.63 mg/mL (containing 25 μM morroniside). A negative control group was obtained by the addition of DMEM with methanol at 0.5%(v/v). The cell culture medium treated group was treated only with DMEM. MTT solution was prepared to 1 mg/mL in phosphate-buffered saline and filtered through a 0.2 μm filter. Then, 20 μL of MTT was added into each well. Cells were incubated for 4 h at 37 °C with 5% CO2, 95% air and 100% humidity. After 4 h, the MTT solution was removed and replaced with 150 μL of DMSO. The plate was further incubated for 5 min at room temperature (20 °C), and the optical density of the wells was measured using a plate reader at a wavelength of 490 nm.
In general terms: Formazan colour is commonly taken as a measure of viable cells.

Read-outs that look alike come from different tables or passages of the source.

`COC(=O)C1=CO[C@@H](O[C@@H]2O[C@H](CO)[C@@H](O)[C@H](O)[C@H]2O)[C@@H]2[C@H](C)O[C@@H](O)C[C@H]12` [morroniside, Morroniside]: the efflux ratio at 180 min, 25 μM in the series on MRP (with MK 571 100 μM (MRP inhibitor), read-out: Efflux ratio P) worked out at 0.4; in the series on MRP2 (Caco-2, pH 7.4, with indomethacin 200 μM, with indomethacin 200 μM (MRP2 inhibitor), read-out: Efflux ratio P), 0.26; in series [1] (Caco-2, pH 7.4, 25 μM morroniside, Control (no inhibitor)), 1.61; in series [1] (Caco-2, pH 7.4, morroniside given as CO 0.63 mg/mL (containing 25 μM morroniside)), 0.49. Besides, the Papp A→B at 180 min, 25 μM with MRP (AP to BL, with MK 571 100 μM, read-out: PappAB (mean)) was determined as 7.55 ×10⁻⁶ cm/s; with MRP2 (Caco-2, pH 7.4, AP to BL, with indomethacin 200 μM, read-out: PappAB (mean)), 12.8 ×10⁻⁶ cm/s. For the same molecule, the Papp B→A at 180 min, 25 μM in the series on MRP (BL to AP, with MK 571 100 μM, read-out: PappBA (mean)) was 3.01 ×10⁻⁶ cm/s; in the series with MRP2 (Caco-2, pH 7.4, BL to AP, with indomethacin 200 μM, read-out: PappBA (mean)) it was 3.3 ×10⁻⁶ cm/s. Also, the efflux ratio at 180 min in series [1] (Caco-2, pH 7.4, Control (no inhibitor), influx transporter experiment, read-out: P (efflux ratio PappBA/PappAB)) was determined as 1.6. In series [1] (Caco-2, Control (no inhibitor), influx transporter experiment, pH 7.4, 37 °C), this molecule returned a Papp B→A at 180 min of 3.06 ± 0.6 ×10⁻⁶ cm/s. Also, the “Survival Rates (%, mean)” value in the series with Caco-2 cells (0.1 μM) is 105.12%; in the series on Caco-2 cells (1 μM) it was 108.33%; with Caco-2 cells (5 μM), 101.62%; in the series with Caco-2 cells (10 μM), 102.41%; in the series with Caco-2 cells (50 μM), 95.21%; in the series with Caco-2 cells (100 μM) it was 91.77%. The “Survival Rates (%, mean)” value in the series on Caco-2 cells (200 μM) turned out to be 90.72%. Also, the “reduction of viability of Caco-2 cells” value with Caco-2 cells (highest concentration (200 μM)) was found to be 8%. In the series on Caco-2 cells (morroniside 0.1 to 200 μM), the “cytotoxicity toward Caco-2 cells (in words)” value was “nontoxic”.
